This note sets out measurements from patent US20250204541A1, “GAS PHASE TREATMENT OF PRODUCE” (priority 2022, published 2025).

In the experiment the test system is mold. Kind of experiment: Mold growth on produce exposed to AITC in an airtight bin (general description). The conditions noted are these: for effect on mold growth on the produce: AITC concentration of 1000 ppm, airtight bin. The format is in vivo. The protocol: The plurality of produce items is contacted with the antimicrobial agent for a length of time in a range of 1 minute to 100 hours (e.g., 10 minutes to 1 hour). The length of time is dependent on a variety of factors, such as type of produce, target pathogen, and the degree to which the enclosure is sealed. Examples include exposure times between 15 minutes and 96 hours for allyl isothiocyanate (AITC) in an airtight bin. […] Lower antimicrobial agent concentrations with longer exposure times or higher antimicrobial concentrations with shorter exposure times can also be used. For example, the plurality of produce items is contacted with the antimicrobial agent for a length of time in a range of 15 minute to 72 hours.
A concentration of the antimicrobial agent in the headspace of the enclosure is typically in a range of about 20 parts per million by volume (ppmv) to about 5000 ppmv (e.g., about 550 ppmv to about 4800 ppmv, or about 25 ppmv to about 1250 ppmv). Depending on type of produce and exposure time in the enclosure, antimicrobial agent concentrations greater than about 2200 ppmv can sometimes damage the produce. […] In some embodiments, the antimicrobial agent is provided in a concentration to the enclosure in a headspace at least about 1200 ppmv, at least about 1250 ppmv, or about 1250 ppmv to about 5000 ppmv, or about 1250 ppmv to about 4900 ppmv.

As for `C=CCN=C=S` [AITC, allyl isothiocyanate], the “effect on mold growth on the produce” value by setting is: (exposure time of 15 minutes) “slowed mold growth on the produce”; (exposure time of 30 min or longer) “showed good efficacy”. Moreover, the “effect on mold growth” value is “some inhibitory effect on mold growth” (AITC concentrations in a range of 550 ppmv to 4800 ppmv) and “tended to be completely inhibitory” (AITC concentrations over 1000 ppmv).
